# Tests used:
# Assay in all cases: Dundee protein kinase screen
# Format in all cases: biochemical
# WNK1 = WNK1 (Homo sapiens, UniProt Q9H4A3); conditions: WNK1, 1µM; read-out: %Remaining activity at 1µM NU6300
# Protocol: (§1) Prior to determining its cellular activity, we carried out a screen to assess its selectivity against a panel of 131 protein kinases under conditions that would not distinguish between a reversible or irreversible mode of action. […] These 13 kinases and 29 additional kinases, selected for their known sensitivity to other inhibitors within the purine series, were then tested in a modified screening format in which the assay was repeated following a 4-hr pre-incubation (Table S3B). […] However, conformational flexibility around the active site may promote such an interaction with a residue from another part of the structure ([Martin et al., 2012]).
# (§2) Table S3, Related to Figure 4. NCL-0006300 protein kinase selectivity. (A) NU6300 was tested at a single concentration of 1µM against 131 protein kinases present in a Dundee protein kinase screen (Bain et al., 2007). Values given are % activity remaining and are the average of duplicate measurements: 0-25% (red), 26-50% (yellow), 51-80% […]
# (§3) (black) and above 81% (green). […]
# MSK1 = MSK1 (Homo sapiens, UniProt O75582); conditions: MSK1, 1µM; read-out: %Remaining activity at 1µM NU6300
# MSK1, sequence (O75582 whole entry): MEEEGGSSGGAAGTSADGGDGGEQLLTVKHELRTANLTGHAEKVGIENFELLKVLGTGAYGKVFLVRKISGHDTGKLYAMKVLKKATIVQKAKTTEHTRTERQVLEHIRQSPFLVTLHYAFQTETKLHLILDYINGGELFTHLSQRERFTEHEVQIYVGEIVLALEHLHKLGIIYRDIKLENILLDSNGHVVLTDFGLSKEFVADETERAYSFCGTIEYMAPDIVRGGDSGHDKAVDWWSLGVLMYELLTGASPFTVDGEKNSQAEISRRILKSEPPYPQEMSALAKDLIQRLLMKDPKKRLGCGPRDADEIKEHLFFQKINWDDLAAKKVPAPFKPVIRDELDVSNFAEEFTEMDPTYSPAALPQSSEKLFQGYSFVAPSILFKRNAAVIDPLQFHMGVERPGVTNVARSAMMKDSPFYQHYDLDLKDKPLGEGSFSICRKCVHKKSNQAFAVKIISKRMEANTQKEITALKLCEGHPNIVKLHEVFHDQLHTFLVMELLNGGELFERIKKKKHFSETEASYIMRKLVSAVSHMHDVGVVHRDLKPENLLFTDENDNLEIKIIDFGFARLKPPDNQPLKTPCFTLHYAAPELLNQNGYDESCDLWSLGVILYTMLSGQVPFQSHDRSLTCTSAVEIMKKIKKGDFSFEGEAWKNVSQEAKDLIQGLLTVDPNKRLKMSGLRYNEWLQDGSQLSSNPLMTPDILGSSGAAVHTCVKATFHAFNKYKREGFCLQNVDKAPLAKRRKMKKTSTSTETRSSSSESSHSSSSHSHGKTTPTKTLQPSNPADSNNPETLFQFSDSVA
# Protocol: as §1, §2, §3
# PKCα = PKCα (Homo sapiens, UniProt P17252); conditions: read-out: %Remaining activity at 1µM NU6300
# Protocol: as §1, §2, §3
# PKBα = PKBα (Homo sapiens, UniProt P31749); conditions: read-out: %Remaining activity at 1µM NU6300
# PKBα, sequence (P31749 whole entry): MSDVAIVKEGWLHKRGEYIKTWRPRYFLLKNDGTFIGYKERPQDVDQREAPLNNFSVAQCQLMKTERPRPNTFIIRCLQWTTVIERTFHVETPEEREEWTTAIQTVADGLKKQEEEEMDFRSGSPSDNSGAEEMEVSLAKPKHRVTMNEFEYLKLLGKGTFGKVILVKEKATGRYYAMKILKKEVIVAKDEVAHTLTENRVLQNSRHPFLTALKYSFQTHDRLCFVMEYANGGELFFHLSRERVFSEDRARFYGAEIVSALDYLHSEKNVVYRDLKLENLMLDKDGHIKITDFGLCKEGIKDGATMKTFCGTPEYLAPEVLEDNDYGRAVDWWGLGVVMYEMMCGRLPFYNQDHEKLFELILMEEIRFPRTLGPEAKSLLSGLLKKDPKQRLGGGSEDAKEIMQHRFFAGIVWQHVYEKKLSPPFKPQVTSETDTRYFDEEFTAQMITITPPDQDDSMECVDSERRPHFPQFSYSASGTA
# Protocol: as §1, §2, §3
# SRPK1 = SRPK1 (Homo sapiens, UniProt Q96SB4); conditions: SRPK1, 1µM; read-out: %Remaining activity at 1µM NU6300
# SRPK1, sequence (Q96SB4 whole entry): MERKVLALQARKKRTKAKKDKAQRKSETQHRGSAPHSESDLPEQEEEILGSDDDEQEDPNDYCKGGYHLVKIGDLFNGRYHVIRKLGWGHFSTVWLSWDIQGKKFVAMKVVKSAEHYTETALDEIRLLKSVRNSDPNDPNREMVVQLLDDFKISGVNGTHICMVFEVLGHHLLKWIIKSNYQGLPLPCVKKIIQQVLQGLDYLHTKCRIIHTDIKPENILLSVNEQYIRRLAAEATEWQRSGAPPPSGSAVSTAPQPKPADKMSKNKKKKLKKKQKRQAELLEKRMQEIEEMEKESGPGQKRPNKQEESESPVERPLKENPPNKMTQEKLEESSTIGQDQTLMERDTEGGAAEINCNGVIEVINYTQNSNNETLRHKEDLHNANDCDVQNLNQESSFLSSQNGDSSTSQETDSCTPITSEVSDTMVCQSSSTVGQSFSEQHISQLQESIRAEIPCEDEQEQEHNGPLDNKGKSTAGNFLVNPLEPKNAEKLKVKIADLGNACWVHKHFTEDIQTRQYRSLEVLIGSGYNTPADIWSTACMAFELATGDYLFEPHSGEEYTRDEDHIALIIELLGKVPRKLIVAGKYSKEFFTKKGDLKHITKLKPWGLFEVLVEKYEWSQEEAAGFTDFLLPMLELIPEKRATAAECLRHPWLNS
# Protocol: as §1, §2, §3
# ROCK 2 = ROCK 2 (Homo sapiens, UniProt O75116); conditions: ROCK 2, 1µM; read-out: %Remaining activity at 1µM NU6300
# ROCK 2, sequence (O75116 whole entry): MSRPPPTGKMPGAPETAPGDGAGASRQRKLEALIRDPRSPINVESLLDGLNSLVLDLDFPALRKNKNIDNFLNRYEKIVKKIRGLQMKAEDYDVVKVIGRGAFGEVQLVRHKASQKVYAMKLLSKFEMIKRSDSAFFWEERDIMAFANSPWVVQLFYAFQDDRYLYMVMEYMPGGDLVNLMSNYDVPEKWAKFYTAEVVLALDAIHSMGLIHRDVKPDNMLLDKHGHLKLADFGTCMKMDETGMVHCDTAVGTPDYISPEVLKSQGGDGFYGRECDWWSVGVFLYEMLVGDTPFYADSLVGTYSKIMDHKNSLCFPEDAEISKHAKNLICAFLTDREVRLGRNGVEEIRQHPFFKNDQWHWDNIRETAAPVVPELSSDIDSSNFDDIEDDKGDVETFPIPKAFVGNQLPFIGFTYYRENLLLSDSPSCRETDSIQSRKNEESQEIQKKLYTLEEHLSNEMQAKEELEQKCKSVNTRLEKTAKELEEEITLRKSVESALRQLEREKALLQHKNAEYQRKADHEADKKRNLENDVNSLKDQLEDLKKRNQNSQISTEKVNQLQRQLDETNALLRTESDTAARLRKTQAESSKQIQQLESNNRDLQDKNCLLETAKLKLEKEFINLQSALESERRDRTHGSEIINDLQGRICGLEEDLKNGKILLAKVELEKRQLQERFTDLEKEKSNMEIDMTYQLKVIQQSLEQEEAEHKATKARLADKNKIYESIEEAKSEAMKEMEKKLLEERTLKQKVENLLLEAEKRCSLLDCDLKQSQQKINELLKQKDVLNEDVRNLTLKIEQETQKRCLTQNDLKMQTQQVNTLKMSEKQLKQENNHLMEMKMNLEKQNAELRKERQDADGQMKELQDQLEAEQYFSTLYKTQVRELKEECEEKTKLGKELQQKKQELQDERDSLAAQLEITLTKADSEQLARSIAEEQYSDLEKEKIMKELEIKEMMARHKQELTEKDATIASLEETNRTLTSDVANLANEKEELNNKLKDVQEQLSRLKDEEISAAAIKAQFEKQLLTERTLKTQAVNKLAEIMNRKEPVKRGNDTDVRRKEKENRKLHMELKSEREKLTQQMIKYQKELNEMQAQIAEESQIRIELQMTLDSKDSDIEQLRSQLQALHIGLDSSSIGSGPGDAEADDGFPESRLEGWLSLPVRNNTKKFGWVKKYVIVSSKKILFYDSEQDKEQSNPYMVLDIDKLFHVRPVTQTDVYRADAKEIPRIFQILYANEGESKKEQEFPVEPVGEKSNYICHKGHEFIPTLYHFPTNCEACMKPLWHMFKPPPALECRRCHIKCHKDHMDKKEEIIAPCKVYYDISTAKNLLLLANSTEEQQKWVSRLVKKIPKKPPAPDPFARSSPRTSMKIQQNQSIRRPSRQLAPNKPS
# Protocol: as §1, §2, §3
# NUAK1 = biological target: T1, NUAK1 (Homo sapiens, UniProt O60285); conditions: NUAK1, 1µM; read-out: %Remaining activity at 1µM NU6300
# T1 sequence (O60285 1-661): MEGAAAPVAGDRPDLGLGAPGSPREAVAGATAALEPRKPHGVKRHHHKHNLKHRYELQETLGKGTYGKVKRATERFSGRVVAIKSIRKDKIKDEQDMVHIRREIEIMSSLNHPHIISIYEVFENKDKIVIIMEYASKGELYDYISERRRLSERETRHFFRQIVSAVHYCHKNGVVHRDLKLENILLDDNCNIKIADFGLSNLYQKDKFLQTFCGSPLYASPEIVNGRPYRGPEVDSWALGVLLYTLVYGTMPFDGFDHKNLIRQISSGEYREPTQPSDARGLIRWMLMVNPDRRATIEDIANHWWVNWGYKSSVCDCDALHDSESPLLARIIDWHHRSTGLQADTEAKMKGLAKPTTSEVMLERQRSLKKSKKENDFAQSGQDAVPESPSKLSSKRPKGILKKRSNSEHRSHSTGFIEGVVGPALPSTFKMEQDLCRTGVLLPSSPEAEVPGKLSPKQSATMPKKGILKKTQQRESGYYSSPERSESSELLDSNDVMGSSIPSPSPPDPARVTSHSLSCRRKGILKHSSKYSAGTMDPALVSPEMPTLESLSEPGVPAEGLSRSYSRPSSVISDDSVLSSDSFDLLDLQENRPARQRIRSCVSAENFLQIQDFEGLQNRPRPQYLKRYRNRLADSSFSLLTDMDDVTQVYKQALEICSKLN
# Protocol: as §1, §2, §3
# TAK1 = biological target: T2, TAK1 (Homo sapiens, UniProt O43318); conditions: TAK1, 1µM; read-out: %Remaining activity at 1µM NU6300
# T2 sequence (O43318 1-303 limits assumed): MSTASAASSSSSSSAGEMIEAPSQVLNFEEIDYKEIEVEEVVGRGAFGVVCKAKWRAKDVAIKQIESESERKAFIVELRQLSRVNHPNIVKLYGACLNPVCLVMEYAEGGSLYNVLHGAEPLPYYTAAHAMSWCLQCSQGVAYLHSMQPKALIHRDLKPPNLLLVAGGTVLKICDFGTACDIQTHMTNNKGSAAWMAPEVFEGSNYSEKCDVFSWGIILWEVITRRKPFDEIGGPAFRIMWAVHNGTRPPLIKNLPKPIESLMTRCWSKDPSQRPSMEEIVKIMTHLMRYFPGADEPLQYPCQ
# Protocol: as §1, §2, §3
# TTK = biological target: T3, TTK (Homo sapiens, UniProt P33981); conditions: read-out: %Remaining activity at 1µM NU6300
# T3 sequence (P33981 1-857): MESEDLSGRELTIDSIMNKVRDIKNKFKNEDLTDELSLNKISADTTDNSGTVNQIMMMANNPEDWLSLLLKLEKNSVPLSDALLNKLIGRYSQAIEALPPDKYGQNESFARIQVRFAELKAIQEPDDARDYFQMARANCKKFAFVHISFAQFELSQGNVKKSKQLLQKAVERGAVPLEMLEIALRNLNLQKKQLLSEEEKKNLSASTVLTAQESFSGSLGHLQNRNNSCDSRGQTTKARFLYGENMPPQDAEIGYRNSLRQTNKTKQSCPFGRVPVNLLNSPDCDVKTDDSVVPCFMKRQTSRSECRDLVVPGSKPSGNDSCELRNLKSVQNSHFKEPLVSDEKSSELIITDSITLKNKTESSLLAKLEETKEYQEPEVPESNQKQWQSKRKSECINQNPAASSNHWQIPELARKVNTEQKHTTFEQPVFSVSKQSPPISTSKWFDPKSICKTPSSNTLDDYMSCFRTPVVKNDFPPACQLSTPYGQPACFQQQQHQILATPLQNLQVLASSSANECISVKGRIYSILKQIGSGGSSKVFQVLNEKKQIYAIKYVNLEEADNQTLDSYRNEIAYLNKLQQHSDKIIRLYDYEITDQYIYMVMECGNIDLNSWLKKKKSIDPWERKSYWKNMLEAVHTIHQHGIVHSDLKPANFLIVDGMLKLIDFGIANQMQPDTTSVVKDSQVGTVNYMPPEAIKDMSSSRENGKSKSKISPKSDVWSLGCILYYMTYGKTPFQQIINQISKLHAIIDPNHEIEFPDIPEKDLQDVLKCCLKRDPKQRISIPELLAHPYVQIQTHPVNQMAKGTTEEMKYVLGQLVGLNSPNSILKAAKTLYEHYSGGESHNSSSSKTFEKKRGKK
# Protocol: as §1, §2, §3
# PAK5 = PAK5 (Homo sapiens, UniProt Q9P286); conditions: PAK5, 1µM; read-out: %Remaining activity at 1µM NU6300
# PAK5, sequence (Q9P286 whole entry): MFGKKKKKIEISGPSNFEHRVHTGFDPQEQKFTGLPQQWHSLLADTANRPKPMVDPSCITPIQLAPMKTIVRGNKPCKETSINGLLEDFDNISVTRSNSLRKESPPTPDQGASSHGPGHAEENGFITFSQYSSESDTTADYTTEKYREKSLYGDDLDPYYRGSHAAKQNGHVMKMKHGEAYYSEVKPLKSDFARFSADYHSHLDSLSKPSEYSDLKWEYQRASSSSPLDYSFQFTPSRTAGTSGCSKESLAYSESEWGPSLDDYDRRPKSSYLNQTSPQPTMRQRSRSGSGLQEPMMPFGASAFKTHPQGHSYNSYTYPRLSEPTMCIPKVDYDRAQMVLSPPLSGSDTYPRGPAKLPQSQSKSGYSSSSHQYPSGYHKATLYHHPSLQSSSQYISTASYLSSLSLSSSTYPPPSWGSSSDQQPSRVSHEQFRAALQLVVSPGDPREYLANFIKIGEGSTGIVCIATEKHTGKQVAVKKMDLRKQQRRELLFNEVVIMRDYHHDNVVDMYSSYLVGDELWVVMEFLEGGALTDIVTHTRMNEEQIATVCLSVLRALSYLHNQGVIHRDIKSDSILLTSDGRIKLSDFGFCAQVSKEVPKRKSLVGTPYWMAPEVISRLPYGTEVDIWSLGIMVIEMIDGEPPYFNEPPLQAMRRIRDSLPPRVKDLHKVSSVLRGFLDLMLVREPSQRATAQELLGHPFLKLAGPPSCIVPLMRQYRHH
# Protocol: as §1, §2, §3
# PIM1 = PIM1 (Homo sapiens, UniProt P11309); conditions: PIM1, 1µM; read-out: %Remaining activity at 1µM NU6300
# PIM1, sequence (P11309 whole entry): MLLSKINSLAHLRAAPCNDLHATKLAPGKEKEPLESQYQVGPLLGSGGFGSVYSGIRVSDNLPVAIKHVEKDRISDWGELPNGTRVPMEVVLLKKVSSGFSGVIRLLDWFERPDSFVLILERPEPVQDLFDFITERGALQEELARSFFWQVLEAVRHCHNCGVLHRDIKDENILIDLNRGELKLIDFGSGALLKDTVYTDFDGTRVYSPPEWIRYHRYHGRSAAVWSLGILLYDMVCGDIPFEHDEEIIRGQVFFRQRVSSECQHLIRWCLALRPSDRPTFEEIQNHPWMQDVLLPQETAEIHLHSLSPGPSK
# Protocol: as §1, §2, §3
smiles,measurement,setting,value
"C=CS(=O)(=O)c1ccc(Nc2nc(OCC3CCCCC3)c3nc[nH]c3n2)cc1 [NU6300, 6-(cyclohexylmethoxy)-N-(4-(vinylsulfonyl)phenyl)-9H-purin-2-amine]",remaining activity at 1 µM,WNK1,103%
same,remaining activity at 1 µM,MSK1,69%
same,remaining activity at 1 µM,PKCα,86%
same,remaining activity at 1 µM,PKBα,101%
same,remaining activity at 1 µM,SRPK1,71%
same,remaining activity at 1 µM,ROCK 2,25%
same,remaining activity at 1 µM,NUAK1,2%
same,remaining activity at 1 µM,TAK1,14%
same,remaining activity at 1 µM,TTK,29%
same,remaining activity at 1 µM,PAK5,48%
same,remaining activity at 1 µM,PIM1,84%

# From paper PMC4579270, “Identification and Characterization of an Irreversible Inhibitor of CDK2” (Chemistry & Biology, 2015)
